Article PMC11589570, “Critical assessment of LC3/GABARAP ligands used for degrader development and ligandability of LC3/GABARAP binding pockets” (Nature Communications, 2024)
Where “and” joins values, the source holds several entries; their conditions need not be identical. Identical values can stand only once. Like-named read-outs stand apart in the source and are kept apart here.

What was measured:
LC3B = LC3B (Homo sapiens, UniProt Q9GZQ8); test: FP assay with Cy5-labelled p62 LIR tracer (protein titration and tracer displacement); type: binding; details: for normalized FP signal, p62 LIR tracer displacement: LC3B; for compound titration LC3B (displacement curve, FP signal): two replicate columns per compound
GABARAPL2 = GABARAPL2 (Homo sapiens, UniProt P60520); details: GABARAPL2:ligand molar ratio 1:2
Sequence of GABARAPL2 (P60520 whole entry): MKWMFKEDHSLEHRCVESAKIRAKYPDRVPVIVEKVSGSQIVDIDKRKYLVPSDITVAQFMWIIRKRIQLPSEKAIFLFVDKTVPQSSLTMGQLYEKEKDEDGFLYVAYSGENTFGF

[1] = log10 concentration [M] -3.82391
[2] = log10 concentration [M] -4.1549
[3] = log10 concentration [M] -4.60206
[4] = log10 concentration [M] -5.30103
[5] = log10 concentration [M] -5.69897
[6] = log10 concentration [M] -6.22185
[7] = log10 concentration [M] -6.69897
[8] = log10 concentration [M] -7.30103
[9] = log10 concentration [M] -7.79588
[10] = log10 concentration [M] -8.08092

Cc1ccc(C(=O)N(CCCN)[C@@H](c2nc3cc(Cl)ccc3c(=O)n2Cc2ccccc2)C(C)C)cc1 [compound 3, (R)-N-(3-aminopropyl)-N-(1-(3-benzyl-7-chloro-4-oxo-3,4-dihydroquinazolin-2-yl)−2-methylpropyl)−4-methylbenzamide]
normalized FP signal, p62 LIR tracer displacement (LC3B; [1]): 79.4737 and 100.789
normalized FP signal, p62 LIR tracer displacement (LC3B; [2]): 91.0526 and 93.9474
normalized FP signal, p62 LIR tracer displacement (LC3B; [3]): 98.6842 and 96.3158
normalized FP signal, p62 LIR tracer displacement (LC3B; log10 concentration [M] -5): 92.3684 and 100.263
normalized FP signal, p62 LIR tracer displacement (LC3B; [4]): 95.7895 and 96.5789
normalized FP signal, p62 LIR tracer displacement (LC3B; [5]): 95.5263 and 96.0526
normalized FP signal, p62 LIR tracer displacement (LC3B; [6]): 92.1053 and 92.3684
normalized FP signal, p62 LIR tracer displacement (LC3B; [7]): 97.6316 and 96.5789
normalized FP signal, p62 LIR tracer displacement (LC3B; [8]): 93.1579 and 99.7368
normalized FP signal, p62 LIR tracer displacement (LC3B; [9]): 100.263 and 96.8421
normalized FP signal, p62 LIR tracer displacement (LC3B; [10]): 95.2632 and 96.3158
compound titration LC3B (displacement curve, FP signal) (LC3B; [1]): 79.4737 and 100.789
compound titration LC3B (displacement curve, FP signal) (LC3B; [2]): 91.0526 and 93.9474
compound titration LC3B (displacement curve, FP signal) (LC3B; [3]): 98.6842 and 96.3158
compound titration LC3B (displacement curve, FP signal) (LC3B; log10 concentration [M] -5): 92.3684 and 100.263
compound titration LC3B (displacement curve, FP signal) (LC3B; [4]): 95.7895 and 96.5789
compound titration LC3B (displacement curve, FP signal) (LC3B; [5]): 95.5263 and 96.0526
compound titration LC3B (displacement curve, FP signal) (LC3B; [6]): 92.1053 and 92.3684
compound titration LC3B (displacement curve, FP signal) (LC3B; [7]): 97.6316 and 96.5789
compound titration LC3B (displacement curve, FP signal) (LC3B; [8]): 93.1579 and 99.7368
compound titration LC3B (displacement curve, FP signal) (LC3B; [9]): 100.263 and 96.8421
compound titration LC3B (displacement curve, FP signal) (LC3B; [10]): 95.2632 and 96.3158
CSP (GABARAPL2; residue A19): 0.00171 ppm
CSP (GABARAPL2; residue A23): 0.00424 ppm
CSP (GABARAPL2; residue A58): 0.00148 ppm
CSP (GABARAPL2; residue A75): 0.002 ppm
CSP (GABARAPL2; residue A108): 0.000762 ppm
CSP (GABARAPL2; residue C15): 0.004 ppm
CSP (GABARAPL2; residue D8): 0.00263 ppm
CSP (GABARAPL2; residue D27): 0.00158 ppm
CSP (GABARAPL2; residue D43): 0.00251 ppm
CSP (GABARAPL2; residue D45): 0.003 ppm
CSP (GABARAPL2; residue D54): 0.000849 ppm
CSP (GABARAPL2; residue D81): 0.00228 ppm
CSP (GABARAPL2; residue D100): 0.00228 ppm
CSP (GABARAPL2; residue D102): 0.00165 ppm
CSP (GABARAPL2; residue E7): 0.00472 ppm
CSP (GABARAPL2; residue E12): 0.00142 ppm
CSP (GABARAPL2; residue E17): 0.000762 ppm
CSP (GABARAPL2; residue E34): 0.009 ppm
CSP (GABARAPL2; residue E73): 0.000762 ppm
CSP (GABARAPL2; residue E96): 0.000707 ppm
CSP (GABARAPL2; residue E98): 0.00122 ppm
CSP (GABARAPL2; residue E101): 0.002 ppm
CSP (GABARAPL2; residue E112): 0.0017 ppm
CSP (GABARAPL2; residue F60): 0.005 ppm
CSP (GABARAPL2; residue F77): 0.000283 ppm
CSP (GABARAPL2; residue F79): 0.002 ppm
CSP (GABARAPL2; residue F104): 0.0075 ppm
CSP (GABARAPL2; residue F115): 0.005 ppm
CSP (GABARAPL2; residue G38): 0.005 ppm
CSP (GABARAPL2; residue G103): 0.00213 ppm
CSP (GABARAPL2; residue G111): 0.00847 ppm
CSP (GABARAPL2; residue G116): 0.0024 ppm
CSP (GABARAPL2; residue H9): 0.010 ppm
CSP (GABARAPL2; residue H13): 0.0011 ppm
CSP (GABARAPL2; residue I21): 0.00184 ppm
CSP (GABARAPL2; residue I32): 0.00354 ppm
CSP (GABARAPL2; residue I41): 0.011 ppm
CSP (GABARAPL2; residue I44): 0.00216 ppm
CSP (GABARAPL2; residue I55): 0.000762 ppm
CSP (GABARAPL2; residue I63): 0.004 ppm
CSP (GABARAPL2; residue I64): 0.00283 ppm
CSP (GABARAPL2; residue I68): 0.008 ppm
CSP (GABARAPL2; residue I76): 0.000707 ppm
CSP (GABARAPL2; residue K2): 0.008 ppm
CSP (GABARAPL2; residue K6): 0.007 ppm
CSP (GABARAPL2; residue K20): 0.000707 ppm
CSP (GABARAPL2; residue K24): 0.001 ppm
CSP (GABARAPL2; residue K35): 0.004 ppm
CSP (GABARAPL2; residue K46, estimated): 0.010 ppm
CSP (GABARAPL2; residue K48): 0.022 ppm
CSP (GABARAPL2; residue K66): 0.00142 ppm
CSP (GABARAPL2; residue K74): 0.000906 ppm
CSP (GABARAPL2; residue K97): 0.00113 ppm
CSP (GABARAPL2; residue K99): 0.00144 ppm
CSP (GABARAPL2; residue L11): 0.000762 ppm
CSP (GABARAPL2; residue L50): 0.00216 ppm
CSP (GABARAPL2; residue L70): 0.0019 ppm
CSP (GABARAPL2; residue L78): 0.00212 ppm
CSP (GABARAPL2; residue L105): 0.00283 ppm
CSP (GABARAPL2; residue M1): 0.006 ppm
CSP (GABARAPL2; residue M61): 0.00221 ppm
CSP (GABARAPL2; residue N113): 0.000141 ppm
CSP (GABARAPL2; residue P26, estimated): 0.002 ppm
CSP (GABARAPL2; residue P30, estimated): 0.002 ppm
CSP (GABARAPL2; residue P52, estimated): 0.002 ppm
CSP (GABARAPL2; residue P71, estimated): 0.002 ppm
CSP (GABARAPL2; residue Q40): 0.00659 ppm
CSP (GABARAPL2; residue Q59): 0.000424 ppm
CSP (GABARAPL2; residue Q69): 0.0011 ppm
CSP (GABARAPL2; residue R14): 0.003 ppm
CSP (GABARAPL2; residue R22): 0.00649 ppm
CSP (GABARAPL2; residue R28): 0.00232 ppm
CSP (GABARAPL2; residue R47, estimated): 0.015 ppm
CSP (GABARAPL2; residue R65): 0.0022 ppm
CSP (GABARAPL2; residue R67): 0.003 ppm
CSP (GABARAPL2; residue S10): 0.008 ppm
CSP (GABARAPL2; residue S18): 0.00146 ppm
CSP (GABARAPL2; residue S37): 0.005 ppm
CSP (GABARAPL2; residue S39): 0.00232 ppm
CSP (GABARAPL2; residue S53): 0.002 ppm
CSP (GABARAPL2; residue S72): 0.00122 ppm
CSP (GABARAPL2; residue S110): 0.000825 ppm
CSP (GABARAPL2; residue T56): 0.00133 ppm
CSP (GABARAPL2; residue T114): 0.0017 ppm
CSP (GABARAPL2; residue V16): 0.000141 ppm
CSP (GABARAPL2; residue V29): 0.00214 ppm
CSP (GABARAPL2; residue V31): 0.00444 ppm
CSP (GABARAPL2; residue V33): 0.00281 ppm
CSP (GABARAPL2; residue V36): 0.00638 ppm
CSP (GABARAPL2; residue V42): 0.00652 ppm
CSP (GABARAPL2; residue V51): 0.00319 ppm
CSP (GABARAPL2; residue V57): 0.00127 ppm
CSP (GABARAPL2; residue V80): 0.00281 ppm
CSP (GABARAPL2; residue V107): 0.005 ppm
CSP (GABARAPL2; residue W3): 0.007 ppm
CSP (GABARAPL2; residue W62): 0.0057 ppm
CSP (GABARAPL2; residue Y25): 0.00742 ppm
CSP (GABARAPL2; residue Y49): 0.010 ppm
CSP (GABARAPL2; residue Y106): 0.00214 ppm
CSP (GABARAPL2; residue Y109): 0.00263 ppm
